27 compounds from patent US9382254B2, “Compounds and pharmaceutical compositions thereof for the treatment of cystic fibrosis” (Galapagos NV, priority 2013, dated 2016) can be followed below.

For the experiment, the target named is T1, CFTR ΔF508 mutant (Homo sapiens, UniProt P13569, DEL508-508).
T1 construct: expressed in transfected cells; host or cells: CFBE41o- (adenoviral transduction)
In words: YFP-halide influx assay for the CFTR-ΔF508 mutation, gluconate buffer. The class given is cell-based. The settings on record: CFBE41o- cells, forskolin 10.67 μM. An outline of the steps:
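CFBE41o- cells adenovirally transduced with CFTR ΔF508 and YFP H148Q/I152L, then held 24 h at 27 °C or treated with CFTR modulator 24 h at 37 °C. I− quenching recorded for 7 s after injection; activity as 1-F/F0, EC50 from concentration plot.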

T1 sequence (P13569 with tags, fused parts or gaps DEL508-508): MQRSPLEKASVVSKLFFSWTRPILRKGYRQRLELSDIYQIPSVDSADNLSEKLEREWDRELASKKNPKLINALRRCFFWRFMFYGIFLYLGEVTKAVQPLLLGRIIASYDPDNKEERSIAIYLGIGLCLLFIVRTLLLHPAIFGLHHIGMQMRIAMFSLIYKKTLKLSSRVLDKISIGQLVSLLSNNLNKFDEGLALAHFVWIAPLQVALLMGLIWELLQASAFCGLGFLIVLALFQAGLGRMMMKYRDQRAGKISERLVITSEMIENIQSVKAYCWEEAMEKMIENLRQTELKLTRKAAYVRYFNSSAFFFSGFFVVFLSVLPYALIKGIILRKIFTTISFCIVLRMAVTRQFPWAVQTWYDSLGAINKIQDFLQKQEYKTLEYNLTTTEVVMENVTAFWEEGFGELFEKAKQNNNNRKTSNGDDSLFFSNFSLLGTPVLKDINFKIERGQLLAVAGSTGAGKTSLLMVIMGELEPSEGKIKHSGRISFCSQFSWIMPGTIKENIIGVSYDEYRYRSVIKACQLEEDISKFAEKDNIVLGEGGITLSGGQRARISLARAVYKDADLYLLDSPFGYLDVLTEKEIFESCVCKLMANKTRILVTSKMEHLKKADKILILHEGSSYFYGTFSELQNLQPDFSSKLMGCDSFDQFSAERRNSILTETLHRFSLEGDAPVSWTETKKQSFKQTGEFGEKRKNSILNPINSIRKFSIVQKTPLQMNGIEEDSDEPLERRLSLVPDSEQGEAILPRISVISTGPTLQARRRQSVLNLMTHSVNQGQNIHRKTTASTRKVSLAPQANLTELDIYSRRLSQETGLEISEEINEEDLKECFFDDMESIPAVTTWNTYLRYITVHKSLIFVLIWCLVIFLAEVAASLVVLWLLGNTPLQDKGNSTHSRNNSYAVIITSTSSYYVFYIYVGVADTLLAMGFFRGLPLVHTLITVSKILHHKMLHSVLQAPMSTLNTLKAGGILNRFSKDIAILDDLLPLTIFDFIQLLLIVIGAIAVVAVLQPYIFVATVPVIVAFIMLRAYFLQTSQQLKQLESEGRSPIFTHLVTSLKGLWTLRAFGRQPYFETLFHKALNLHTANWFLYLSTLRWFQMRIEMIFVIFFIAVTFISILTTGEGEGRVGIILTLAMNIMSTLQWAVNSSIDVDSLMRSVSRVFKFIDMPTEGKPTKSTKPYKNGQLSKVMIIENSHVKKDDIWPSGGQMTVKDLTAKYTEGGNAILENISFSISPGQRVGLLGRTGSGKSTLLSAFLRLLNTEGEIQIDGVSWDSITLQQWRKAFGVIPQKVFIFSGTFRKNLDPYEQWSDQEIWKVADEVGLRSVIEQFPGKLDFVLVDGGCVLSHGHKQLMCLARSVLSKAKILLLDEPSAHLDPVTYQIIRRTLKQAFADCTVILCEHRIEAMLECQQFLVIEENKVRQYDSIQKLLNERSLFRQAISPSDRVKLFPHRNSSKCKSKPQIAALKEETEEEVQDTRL

One may read the EC50 as the midpoint of the concentration-response curve. Turning to `NC(=O)c1cc(S(=O)(=O)C2CCOCC2)sc1NC(=O)c1ccccc1F` [Compound 165, 2-(2-fluorobenzamido)-5-(tetrahydro-2H-pyran-4-ylsulfonyl)thiophene-3-carboxamide], the EC50 was greater than 1000 nM. The result for `Cc1cc(C(=O)Nc2sc(S(=O)(=O)N3CCOCC3)cc2C(N)=O)n[nH]1` [Compound 166, N-(3-carbamoyl-5-(morpholinosulfonyl)thiophen-2-yl)-5-methyl-1H-pyrazole-3-carboxamide] reads 815 nM; that for `Cn1nc(C(C)(C)C)cc1C(=O)Nc1sc(S(=O)(=O)N2CCOCC2)cc1C(N)=O` [Compound 167, 3-tert-butyl-N-(3-carbamoyl-5-(morpholinosulfonyl)thiophen-2-yl)-1-methyl-1H-pyrazole-5-carboxamide], 3050 nM. With `COc1cc(F)ccc1C(=O)Nc1sc(S(=O)(=O)N2CCOCC2)cc1C(N)=O` [Compound 168, 2-(4-fluoro-2-methoxybenzamido)-5-(morpholinosulfonyl) thiophene-3-carboxamide], a half-maximal effect (EC50) was put at 1660 nM. The result for `Cc1cc(F)ccc1C(=O)Nc1sc(S(=O)(=O)N2CCOCC2)cc1C(N)=O` [Compound 169, 2-(4-fluoro-2-methylbenzamido)-5-(morpholinosulfonyl) thiophene-3-carboxamide] reads 210 nM. Compound `CN(C)C1CCN(S(=O)(=O)c2cc(C(N)=O)c(NC(=O)c3ccccc3F)s2)CC1` [Compound 174, 5-(4-(dimethylamino)piperidin-1-ylsulfonyl)-2-(2-fluorobenzamido) thiophene-3-carboxamide] had an EC50 of 2370 nM.

The compound `N#CC1CN(S(=O)(=O)c2cc(C(N)=O)c(NC(=O)c3ccccc3F)s2)C1` [Compound 176, 5-(3-cyanoazetidin-1-ylsulfonyl)-2-(2-fluorobenzamido)thiophene-3-carboxamide] gave a 50% effective concentration (EC50) of 1460 nM.

Compound `NC(=O)c1cc(S(=O)(=O)N2CC(F)C2)sc1NC(=O)c1ccccc1F` [Compound 177, 5-(3-fluoroazetidin-1-ylsulfonyl)-2-(2-fluorobenzamido)thiophene-3-carboxamide] had an EC50 of 178 nM. As for `NC(=O)c1cc(S(=O)(=O)c2ccccn2)sc1NC(=O)c1ccccc1F` [Compound 178, 2-(2-fluorobenzamido)-5-(pyridin-2-ylsulfonyl) thiophene-3-carboxamide], the figure is 524 nM; as for `Cc1ccccc1S(=O)(=O)c1cc(C(N)=O)c(NC(=O)c2ccccc2F)s1` [Compound 180, 2-(2-fluorobenzamido)-5-(o-tolylsulfonyl)thiophene-3-carboxamide], 123 nM; as for `COc1ccccc1S(=O)(=O)c1cc(C(N)=O)c(NC(=O)c2ccccc2F)s1` [Compound 181, 2-(2-fluorobenzamido)-5-(2-methoxyphenylsulfonyl) thiophene-3-carboxamide], 144 nM. As for `CN(CC(C)(C)C)S(=O)(=O)c1cc(C(N)=O)c(NC(=O)c2ccccc2F)s1` [Compound 184, 2-(2-fluorobenzamido)-5-(N-methyl-N-neopentylsulfamoyl) thiophene-3-carboxamide], the figure is 679 nM; as for `CN(CCC(F)(F)F)S(=O)(=O)c1cc(C(N)=O)c(NC(=O)c2ccccc2F)s1` [Compound 185, 2-(2-fluorobenzamido)-5-(N-methyl-N-(3,3,3-trifluoropropyl)sulfamoyl) thiophene-3-carboxamide], 335 nM; as for `COCCCN(C)S(=O)(=O)c1cc(C(N)=O)c(NC(=O)c2ccccc2F)s1` [Compound 186, 2-(2-fluorobenzamido)-5-(N-(3-methoxypropyl)-N-methylsulfamoyl)thiophene-3-carboxamide], 270 nM. As for `CN(C)C1CN(S(=O)(=O)c2cc(C(N)=O)c(NC(=O)c3ccccc3F)s2)C1` [Compound 187, 5-(3-(dimethylamino)azetidin-1-ylsulfonyl)-2-(2-fluorobenzamido)thiophene-3-carboxamide], the figure is 1600 nM; as for `NC(=O)c1cc(S(=O)(=O)N2CC3(COC3)C2)sc1NC(=O)c1ccccc1F` [Compound 188, 5-(2-oxa-6-azaspiro[3.3]heptan-6-ylsulfonyl)-2-(2-fluorobenzamido) thiophene-3-carboxamide], 2100 nM.

Take `CN(C(c1ccccc1)C(F)(F)F)S(=O)(=O)c1cc(C(N)=O)c(NC(=O)c2cc[nH]n2)s1` (stereo not drawn) [Compound 195, N-(3-carbamoyl-5-(N-methyl-N-(2,2,2-trifluoro-phenylethyl)sulfamoyl)thiophen-2-yl)-1H-pyrazole-3-carboxamide]: the midpoint of the response, the EC50, lay at 258 nM. As for `NC(=O)c1cc(S(=O)(=O)c2ccc(F)cc2CO)sc1NC(=O)c1ccccc1F` [Compound 196, 5-(4-fluoro-2-(hydroxymethyl)phenylsulfonyl)-2-(2-fluorobenzamido) thiophene-3-carboxamide], the figure is 2100 nM; as for `NC(=O)c1cc(S(=O)(=O)N2CCOCC2)sc1NC(=O)C1(O)CCC1` [Compound 199, 2-(1-hydroxycyclobutanecarboxamido)-5-(morpholinosulfonyl) thiophene-3-carboxamide], 1970 nM. As to `NC(=O)c1cc(S(=O)(=O)N2CCOCC2)sc1NC(=O)C1(O)CCOCC1` [Compound 200, N-(3-carbamoyl-5-(morpholinosulfonyl)thiophen-2-yl)-4-hydroxytetrahydro-2H-pyran-4-carboxamide], the midpoint of the response, the EC50, lay at 3330 nM. As for `CC(C)c1cc(C(=O)Nc2sc(S(=O)(=O)N3CCOCC3)cc2C(N)=O)c(O)c(C(C)C)c1` [Compound 201, 2-(2-hydroxy-3,5-diisopropylbenzamido)-5-(morpholinosulfonyl) thiophene-3-carboxamide], the figure is 3330 nM.

In the case of `NC(=O)c1cc(S(=O)(=O)N2CCC(F)(F)CC2)sc1NC(=O)C1(O)CCOCC1` [Compound 202, N-(3-carbamoyl-5-(4,4-difluoropiperidin-1-ylsulfonyl)thiophen-2-yl)-4-hydroxytetrahydro-2H-pyran-4-carboxamide], the response was half-maximal at 706 nM (EC50). The result for `CC(C)(O)C(=O)Nc1sc(S(=O)(=O)N2CCOCC2)cc1C(N)=O` [Compound 203, 2-(2-hydroxy-2-methylpropanamido)-5-(morpholinosulfonyl) thiophene-3-carboxamide] reads 3330 nM; that for `COCCCN(C)S(=O)(=O)c1cc(C(N)=O)c(NC(=O)c2cc[nH]n2)s1` [Compound 204, N-(3-carbamoyl-5-(N-(3-methoxypropyl)-N-methylsulfamoyl)thiophen-2-yl)-1H-pyrazole-3-carboxamide], 218 nM; that for `NC(=O)c1cc(S(=O)(=O)N2CC(F)C2)sc1NC(=O)c1cc[nH]n1` [Compound 205, N-(3-carbamoyl-5-(3-fluoroazetidin-1-ylsulfonyl)thiophen-2-yl)-1H-pyrazole-3-carboxamide], 1150 nM. Turning to `NC(=O)c1cc(S(=O)(=O)N2CCC2)sc1NC(=O)c1cc[nH]n1` [Compound 208, N-(5-(azetidin-1-ylsulfonyl)-3-carbamoylthiophen-2-yl)-1H-pyrazole-3-carboxamide], it took 573 nM to reach a half-maximal effect (EC50). The result for `CS(=O)(=O)c1cc(C(N)=O)c(NC(=O)c2ccccc2O)s1` [Compound 211, 2-(2-hydroxybenzamido)-5-(methylsulfonyl)thiophene-3-carboxamide] reads 320 nM.
